“And” between values parts separate entries of the source, which are not always exact repeats. Equal values may be shown once. Marks after values point to notes of the source that are not given here.
Assays:
[1] = Plasma antioxidant reserve (PAR); format: in vivo, human; details: for PAR, Endpoint: end of quercetin phase
Procedure: Blood samples were collected after blood pressure was measured. Blood was collected by antecubital venipuncture from fasting subjects into sodium heparin tubes (Becton Dickinson, N.J., USA). Collected blood was immediately stored on ice and centrifuged within 10 minutes at 4° C. for 15 minutes at 2500 g as previously described (36). […] Ex-vivo amplification of isoprostanes was accomplished by introducing a source of free radicals (3-morpholinosydnonimine, SIN-1) into the blood plasma to induce oxidation of lipoproteins (39). Uric acid, a major water soluble antioxidant present in plasma, was removed using uricase prior to introduction of SIN-1 so that any protection provided by other antioxidants could be measured. Therefore, PAR measures the non-urate antioxidant capacity, or antioxidant power, of blood.

[2] = Trial: body mass, heart rate, adverse effects; format: in vivo, human
Procedure: A 14-day washout period separated the two phases. Subjects were randomly assigned to begin either the quercetin or the placebo phase first. […] Clinic visits were conducted on overnight-fasted subjects in the morning hours at the beginning and end of the placebo and quercetin supplementation phases. Subjects were instructed not to exercise prior to their appointments. […] Blood pressure was a primary outcome variable and was obtained at each clinic visit by a trained observer using an Omron random zero automatic blood pressure analyzer as previously described (35). Each participant sat quietly for 5-10 minutes, after which their arm was placed at heart level and blood pressure and pulse rate were determined at least three times in 3-5 minute intervals. If blood pressure varied among these determinations by more than 10 mmHg, three additional trials were performed. The accumulated measurements then were averaged to determine overall systolic and diastolic pressure and pulse rate for each subject. Nearly 1000 patients were interviewed and screened for eligibility. […] From this initial screening, 204 were evaluated in more detail at a subsequent clinic visit to determine if all inclusion/exclusion criteria were met, and that blood pressure was within the study limits (FIG. 6). […]

[3] = tested on: normotensive individuals; details: 1000 mg/day of quercetin for one month (Conquer et al.); cited from earlier work
[4] = tested on: NE precontracted aortic segments; assay: Vascular reactivity in segments of aorta, wire-type myograph; format: in vivo, rat
Procedure: Animals are anesthetized, the heart and aorta excised, and vascular reactivity is assessed in segments of aorta using a wire-type myograph.

[5] = tested on: rats with abdominal aortic constriction (AAC) or sham operated; assay: Blood pressure in caudal and carotid arteries of conscious rats, abdominal aortic constriction pressure overload model; format: in vivo, rat; details: quercetin 1.5 g/kg chow, mean ± SEM
Source text: In this procedure the abdominal aorta is constricted to increase the afterload on the heart and produce pressure overload. […] Rats consumed this diet for 7 days. On the 8th day, 5 rats were surgically modeled for pressure overload by constricting the abdominal aorta to a diameter of 0.63 mm with a Weck hemoclip. The other 5 rats were sham operated (anesthetized and the aorta exposed, but not constricted). […] Another group of 10 rats were placed on a standard diet with no supplement and treated in an identical fashion with 5 surgically modeled for pressure overload and 5 sham operated. […] Two weeks after surgery post-sacrifice morphometric measurements are obtained by measuring total heart weight, left ventricle weight, and calculating heart:body weight and left ventricle:body weight ratios to assess cardiac mass and cardiac hypertrophy. […] An identical experimental procedure as described in Example I is used with n=10 rats per group (S, AAC, SQ, AAC-Q) for a total of 40 rats. […] Rats subjected to this protocol have very high carotid blood pressure. Rats are anesthetized, a catheter is placed in the caudal and carotid arteries, rats are allowed to regain consciousness for 60 minutes and blood pressures are measured.

[6] = tested on: Akt; assay: Akt signaling status in left ventricle, immunoblot; format: in vivo, rat; details: AAC rats fed supplemental quercetin
Procedure: Determination of ERK1/2 and Akt signaling status (FIGS. 4A & 4B). All extraction procedures were performed at 4° C. […] After homogenization, the samples were sonicated twice on ice and centrifuged at 11,000×g for 10 min. at 4° C. Supernatants were recovered and stored at −80° C. for subsequent immunoblotting. Protein concentration of whole heart cell lysate was determined using a Bio-Rad Protein assay (Bio-Rad, Hercules, Calif.) with bovine serum albumin (BSA) as a standard.

[7] = Plasma quercetin in trial subjects (HPLC); format: in vivo; details: human, oral
Procedure: (§1) Blood samples were collected after blood pressure was measured. Blood was collected by antecubital venipuncture from fasting subjects into sodium heparin tubes (Becton Dickinson, N.J., USA). Collected blood was immediately stored on ice and centrifuged within 10 minutes at 4° C. for 15 minutes at 2500 g as previously described (36).
Supernatants then were extracted with ethyl acetate and injected into an HPLC Discovery C18 column. The mobile phase was 1% acetic acid (solvent A) and 95% acetonitrile in 1% phosphoric acid (solvent B). The gradient elution was solvent B from 10 to 85% in 20 minutes, holding for 5 minutes before returning back to 10% for conditioning. A visible detector with 365 nm was used.

[8] = tested on: PKC; details: cytosol and membrane fraction of cells from thyroid, brain, liver, fibroblasts; μM concentrations of quercetin; cited from earlier work
[9] = Ferric reducing antioxidant power (FRAP) of plasma; format: in vivo, human; details: for FRAP, Endpoint: end of quercetin phase
Procedure: as §1
FRAP measures the ability of an antioxidant to reduce Fe^3+ to Fe^2+ (40), and is an index of plasma antioxidant potential in hypertensive patients (41-44). This assay was done as previously described (39). Briefly, plasma samples were diluted 1:2 with phosphate buffered saline, followed by addition of a reagent solution containing 0.8 mmol/L 2,4,6-tri-(2-pyridyl)-s-tirazine and 1.7 mmol/l FeCl3.6-H2O. Samples were then incubated at 37° C. for 15 min and the absorbance at 593 nm was recorded in a plate reader (Molecular Devices, Spectramax 340 pc).

[10] = both groups of hypertensive subjects
[11] = sham-operated Q-fed animals (n=10)

O=c1c(O)c(-c2ccc(O)c(O)c2)oc2cc(O)cc(O)c12 [quercetin, 3,5,7,3′,4′-pentahydroxyflavone]
fasting plasma PAR, quercetin supplementation vs. placebo [1, 10]: not altered
PAR, Endpoint ([1]; prehypertensive (n=10), baseline 279 ± 48): 266 ± 32 pg/mL
PAR, Endpoint ([1]; stage 1 hypertensive (n=8), baseline 258 ± 55): 281 ± 74 pg/mL
adverse effects ([2]; 730 mg quercetin/day, 4 weeks, during the course of the study): No adverse effects
Heart rate ([2]; throughout the study (data not shown)): unchanged
blood pressure [3]: no changes in blood pressure
plasma quercetin concentrations [3]: 427 ± 89 ng/mL
maximal ACh-evoked relaxation ([4]; AAC-Q rats (n=9), untreated AAC 30±3): 44±3%
SNP-evoked relaxation ([4]; AAC-Q rats (n=9), untreated AAC 56±3): 71±4%
SNP-evoked relaxation [4, 11]: 71±5%
maximal ACh-evoked relaxation [4, 11]: 38±4%
Caudal MAP (mean arterial pressure) ([5]; AAC + Q: AAC rats): 108.0 ± 7.1 mmHg
Diastolic Caudal blood pressure ([5]; AAC + Q: AAC rats): 104.7 ± 5.5^b mmHg
Gradient MAP ([5]; AAC + Q: AAC rats): 18.3 ± 4.4^b mmHg
Systolic Caudal blood pressure ([5]; AAC + Q: AAC rats): 118.3 ± 6.4 mmHg
Systolic Carotid blood pressure ([5]; AAC + Q: AAC rats, untreated AAC 201.4 ± 11.4): 158.8±10.3 mmHg and 158.8 ± 10.3^b mmHg
Carotid MAP (mean arterial pressure) ([5]; Sham + Q: sham operated rats): 113.5 ± 3.8^a mmHg
Caudal MAP (mean arterial pressure) ([5]; Sham + Q: sham operated rats): 100.6 ± 3.0 mmHg
Diastolic Carotid blood pressure ([5]; Sham + Q: sham operated rats): 106.2 ± 4.8^a mmHg
Diastolic Caudal blood pressure ([5]; Sham + Q: sham operated rats): 93.6 ± 3.2^a mmHg
Diastolic Gradient (carotid vs caudal) ([5]; Sham + Q: sham operated rats): 7.0 ± 2.9^a mmHg
Gradient MAP ([5]; Sham + Q: sham operated rats): 7.2 ± 1.9^ab mmHg
Systolic Carotid blood pressure ([5]; Sham + Q: sham operated rats): 128.2 ± 1.9^a mmHg
Systolic Caudal blood pressure ([5]; Sham + Q: sham operated rats): 114.7 ± 3.2 mmHg
Systolic Gradient (carotid vs caudal) ([5]; Sham + Q: sham operated rats): 7.3 ± 1.9^a mmHg
activation of Akt [6]: prevented
concentration at 1 week after end of supplementation [7]: 190 ± 9 ng/mL
concentration at 4 weeks ([7]; 730 mg/day for 4 weeks, fasted, 235±35 after placebo): 480 ± 64 ng/mL
PKC activity [8]: inhibition of PKC activity
fasting plasma FRAP, quercetin supplementation vs. placebo [9, 10]: not altered
FRAP, Endpoint ([9]; prehypertensive (n=10), baseline 1080 ± 48): 1106 ± 61 µmol/L
FRAP, Endpoint ([9]; stage 1 hypertensive (n=8), baseline 1056 ± 59): 1152 ± 69 µmol/L
